The source of these data is paper PMC10778626, “Efficacy of Novel Quaternary Ammonium and Phosphonium Salts Differing in Cation Type and Alkyl Chain Length against Antibiotic-Resistant Staphylococcus aureus” (International Journal of Molecular Sciences, 2023).

A short description of data set [1]: Chromatographic hydrophobicity index (CHI) by UHPLC. It is filed as physicochemical. To be noted: for CHI: LC/UV at pH 2.6, calculated from retention time with the calibration line; for chromatographic logP: back-calculated from CHI at pH 2.6: CHI LogP = 0.047 × CHI + 0.36 × HBC − 1.10. As to the method: The chromatographic hydrophobicity index (CHI) values were determined using the retention times (tR) of the samples under study and of a mixture of standard compounds on a UHPLC NEXERA SERIES LC-40 with a Luna C18 (2) column of 150 × 4.6 mm, 5 μm (Phenomenex, Torrance, CA, USA). Stock solutions of the test compounds (10 mM) were prepared in dimethyl sulfoxide (DMSO, 99.9%; Carlo Erba) and diluted in acetonitrile/water (1:1) to obtain a final concentration of 500 μM. The mobile phase A was 1.0% (v/v) aqueous acetic acid solution (pH = 2.6), and the mobile phase B was acetonitrile. The following gradient programme was applied: 1–7 min 0–100% B, 7–17 min 100% B, 17–19 min 100–0% B, 1 mL/min flow; rt, injection volume 40 μL.
A calibration line was obtained using a mixture of the following compounds: benzimidazole, theophylline, paracetamol, caffeine, colchicine, carbamazepine, indole, propiophenone, butyrophenone, valerophenone, and heptanophenone (Table S1 and Figure S50, Supplementary Materials). The experimental CHI values of the compounds tested at pH 2.6 were then converted to the logarithm of octanol/water partition coefficient (CHI LogP) values using Equation (1). CHI LogP = 0.047 × CHI + 0.36 × HBC − 1.10 (1) where HBC is the hydrogen bond donor count.

The subject of another data set is S. aureus CECT 976. The experiment in a line: MIC/MBC by broth microdilution, S. aureus CECT 976. The class given is cell-based. The settings on record: Staphylococcus aureus, CECT976, S. aureus CECT 976, broth microdilution; for MIC: 24 h, 37 °C, read-out: MIC; for MBC: plated on PCA, read-out: MBC.
The next data set deals with HepG2 cells. The experiment in a line: Cytotoxicity by neutral red (NR) uptake. To be noted: for NR uptake (lysosomal activity), % of control: HepG2, 24 h; for safety profile (MIC correlated with in vitro human cellular data): concentrations equal to or below 2 µg/mL. It is filed as cell-based, human. As to the method: The evaluation of the cytotoxicity effects of QHSs was performed using hepatocellular carcinoma (HepG2) cells. […] The cells used for all experiments were taken between the 9th and 13th passages, to avoid phenotypic changes.
The cytotoxicity profile of the compounds under study was evaluated in HepG2 cells (2.5 × 10^5 cells/mL) seeded in 96-well plates. […] Control experiments were performed for viability endpoints by adding the vehicle (medium with 0.1% DMSO) instead of the compound solution.
In the NR uptake assay, following a 24 h incubation period with the test compounds, the cell culture medium was aspirated, and fresh medium containing 150 µL of the dye (at a concentration of […]) was added to the cells. […] After incubation, the cell culture medium was discarded, and a mixture of absolute ethanol and distilled water (1:1) containing 5% acetic acid was added to extract the dye accumulated within the lysosomes of viable cells. The absorbance at 540 nm was measured using a microplate reader (Synergy HTX Multi-Mode Reader—BioTek, Winooski, VT, USA).
For all assays, results are expressed as a percentage of the control (nontreated cells), taken as 100%.

For data set [2], the system named is S. aureus XU212, SA1199B, and RN4220. The experiment in a line: MIC/MBC by broth microdilution, ranges over the antibiotic-resistant strains. It is filed as cell-based, Staphylococcus aureus. As to the method:
S. aureus CECT 976, obtained from the Spanish Type Culture Collection, was used as the standard susceptibility testing control strain. This strain has been previously employed in diverse studies to validate the antimicrobial effects of novel molecules. Additional antibiotic-resistant strains, S. aureus XU212, SA1199B, and RN4220, generously provided by S. Gibbons (University College London, London, UK) were tested. […] The SA1199B strain is characterized by its resistance to fluoroquinolones due to the overexpression of the NorA efflux pump and its ciprofloxacin resistance.
The minimum inhibitory concentration (MIC) and minimum bactericidal concentration (MBC) values of all QHSs were determined by the broth microdilution method, according to the approved M7-A7 (aerobes) standards of the Clinical and Laboratory Standards Institute (CLSI) guidelines. […] Absorbance measurements were performed at the beginning (t = 0 h) and end (t = 24 h) of the incubation period using a microtiter plate absorbance reader (BMG LABTECH FLUOstar Omega). […]
Plates were incubated at 37 °C for 24 h, and growth was visually inspected. The MBC was determined as the lowest concentration of compound in which the total inhibition of growth on solid medium was observed (no colony forming units (CFUs) were detected). […]
A general note: Broth dilution looks for growth in wells or tubes with falling amounts of substance.

A word on the chromatographic logP: it is lipophilicity estimated from chromatographic retention. The term MIC denotes the least concentration at which growth counts as inhibited. As usually defined, the MBC is the lowest tested concentration that kills the bacteria rather than only halting them. As to `CCCCCCCCCCCCCC[P+](c1ccccc1)(c1ccccc1)c1ccccc1` [Compound 1e, Triphenyl(tetradecyl)phosphonium bromide], the CHI in data set [1] was 105.0. Besides, the chromatographic logP in data set [1] is 3.84. Also, in the data set on S. aureus CECT 976, the MIC turned out to be 1 µg/mL. In the data set on S. aureus CECT 976, the MBC amounted to 16 µg/mL. The “NR uptake (lysosomal activity), % of control” value (“NR uptake … % of control” for short) with HepG2 cells (1 µg/mL) is on record as 53.86 ± 4.854% (****); with HepG2 cells (2 µg/mL), 72.84 ± 7.906% (****); in the data set with HepG2 cells (16 µg/mL) it was 12.29 ± 3.775% (****); in the data set with HepG2 cells (32 µg/mL) it was 13.78 ± 2.666% (****). For the same molecule, the “MBC values, range over strains” value in data set [2] is listed as 2 µg/mL.

Regarding `CCCCCCCCCCCCCC[n+]1ccn(C)c1.[Br-]` [Compound 2e, 1-Methyl-3-tetradecyl-1H-imidazol-3-ium bromide], in data set [1], the CHI is recorded as 81.36 and the chromatographic logP was 2.72. Moreover, in the data set with S. aureus CECT 976, the minimum inhibitory concentration (MIC) was determined as 1 µg/mL and the minimum bactericidal concentration (MBC) was 8 µg/mL. For the same molecule, in the data set on HepG2 cells (2 µg/mL), the “NR uptake … % of control” value is 86.71 ± 4.103% (****). In the data set with HepG2 cells (16 µg/mL), the “NR uptake … % of control” value is 12.85 ± 2.005% (****). The “NR uptake … % of control” value with HepG2 cells (32 µg/mL) was 13.64 ± 2.776% (****). The “safety profile (MIC correlated with in vitro human cellular data)” value (from here on “safety profile”) in the data set with HepG2 cells is listed as “favourable safety profile”.

As to `CCCCCCCCCCCCCC[n+]1ccc2ccccc2c1.[Br-]` [Compound 3e, 2-Tetradecylisoquinolin-2-ium bromide], in data set [1], the CHI is listed as 87.98 and the chromatographic logP is 3.04. Further, in the data set on S. aureus CECT 976, the MIC turned out to be 2 µg/mL and the MBC worked out at 8 µg/mL. Also, the “NR uptake … % of control” value in the data set on HepG2 cells (2 µg/mL) is listed as 79.86 ± 9.893% (****). For the same molecule, the “NR uptake … % of control” value in the data set on HepG2 cells (16 µg/mL) is listed as 12.68 ± 2.385% (****). Besides, the “NR uptake … % of control” value in the data set on HepG2 cells (32 µg/mL) is 12.77 ± 1.368% (****).

As to `CCCCCCCCCCCCCC[n+]1ccc(C)cc1.[Br-]` [Compound 4e, 4-Methyl-1-tetradecylpyridin-1-ium bromide], in data set [1], the CHI is recorded as 82.90 and the chromatographic logP is 2.8. In addition, in the data set on S. aureus CECT 976, the MIC is 2 µg/mL and the MBC is 8 µg/mL. Besides, in the data set on HepG2 cells (16 µg/mL), the “NR uptake … % of control” value is listed as 14.45 ± 2.437% (****). Moreover, the “NR uptake … % of control” value in the data set on HepG2 cells (32 µg/mL) is recorded as 21.52 ± 19.06% (****). In the data set with HepG2 cells, the “safety profile” value is recorded as “favourable safety profile”.

For `CCCCCCCCCCCCCC[n+]1cccc2ccccc21.[Br-]` [Compound 5e, 1-Tetradecylquinolin-1-ium bromide], in data set [1], the CHI is 88.00 and the chromatographic logP is 3.04. In the data set on S. aureus CECT 976, the minimal inhibitory concentration (MIC) worked out at 2 µg/mL and the MBC was 8 µg/mL. The “NR uptake … % of control” value in the data set with HepG2 cells (2 µg/mL) was 88.20 ± 3.101% (****). For the same molecule, the “NR uptake … % of control” value in the data set with HepG2 cells (16 µg/mL) is recorded as 12.06 ± 2.988% (****). Besides, in the data set with HepG2 cells (32 µg/mL), the “NR uptake … % of control” value is listed as 14.38 ± 4.045% (****). In addition, in the data set on HepG2 cells, the “safety profile” value was “favourable safety profile”. Further, in data set [2], the “MBC values, range over strains” value is 8 µg/mL.

With `CCCCCCCCCCCCCC[n+]1ccccc1.[Br-]` [Compound 6e, 1-Tetradecylpyridin-1-ium bromide], in data set [1], the CHI is on record as 79.90 and the chromatographic logP was 2.65. Besides, in the data set with S. aureus CECT 976, the MIC worked out at 4 µg/mL and the MBC was determined as 8 µg/mL. For the same molecule, the “NR uptake … % of control” value in the data set with HepG2 cells (16 µg/mL) is 10.46 ± 3.129% (****). In addition, the “NR uptake … % of control” value with HepG2 cells (32 µg/mL) is reported as 12.93 ± 3.760% (****).
